Assays:
Test in all cases: Test C plant response
Type in all cases: in vivo
[1] = tested on: Italian ryegrass (Lolium multiflorum); conditions: Postemergence, scale 0 to 100
Outline: (§1)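 Compounds in non-phytotoxic solvent mixture with surfactant. Visual rating versus controls after 14 days in controlled environment, scale 0 (no effect) to 100 (complete control).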

[2] = tested on: Russian thistle (Salsola iberica); conditions: Postemergence, scale 0 to 100
Outline: as §1

[3] = tested on: blackgrass (Alopecurus myosuroides); conditions: Postemergence, scale 0 to 100
Outline: as §1

[4] = tested on: bromegrass (downy bromegrass, Bromus tectorum); conditions: Postemergence, scale 0 to 100
Outline: as §1

[5] = tested on: deadnettle (henbit deadnettle, Lamium amplexicaule); conditions: Postemergence, scale 0 to 100
Outline: as §1

[6] = tested on: galium (catchweed bedstraw, Galium aparine); conditions: Postemergence, scale 0 to 100
Outline: as §1

[7] = tested on: green foxtail (Setaria viridis); conditions: Postemergence, scale 0 to 100
Outline: as §1

[8] = tested on: spring barley (Hordeum vulgare); conditions: Postemergence, scale 0 to 100
Outline: as §1

[9] = tested on: spring wheat (Triticum aestivum); conditions: Postemergence, scale 0 to 100
Outline: as §1

[10] = tested on: wild mustard (Sinapis arvensis); conditions: Postemergence, scale 0 to 100
Outline: as §1

wild oat (Avena fatua) [11] = conditions: Postemergence, scale 0 to 100
Outline: as §1

[12] = tested on: wild radish (Raphanus raphanistrum); conditions: Postemergence, scale 0 to 100
Outline: as §1

[13] = tested on: winter barley (Hordeum vulgare); conditions: Postemergence, scale 0 to 100
Outline: as §1

[14] = tested on: winter wheat (Triticum aestivum); conditions: Postemergence, scale 0 to 100
Outline: as §1

[15] = tested on: canarygrass (Phalaris minor); conditions: Preemergence, scale 0 to 100
[16] = tested on: green foxtail (Setaria viridis); conditions: Preemergence, scale 0 to 100
wild oat (Avena fatua) [17] = conditions: Preemergence, scale 0 to 100
[18] = tested on: wild radish (Raphanus raphanistrum); conditions: Preemergence, scale 0 to 100

O=C1CCCC(O)=C1C(=O)c1cnc(-c2ccccc2)n(-c2ccccc2)c1=O [Compound 2, 5-[(2-hydroxy-6-oxo-1-cyclohexen-1-yl)carbonyl]-2,3-diphenyl-4(3H)-pyrimidinone]
Plant response rating: Ryegrass, Italian ([1]; 16 g ai/ha): 0 | Plant response rating: Ryegrass, Italian ([1]; 31 g ai/ha): 0 | Plant response rating: Ryegrass, Italian ([1]; 62 g ai/ha): 15 | Plant response rating: Ryegrass, Italian ([1]; 125 g ai/ha): 30 | Plant response rating: Russian Thistle ([2]; 16 g ai/ha): 35 | Plant response rating: Russian Thistle ([2]; 31 g ai/ha): 60 | Plant response rating: Russian Thistle ([2]; 62 g ai/ha): 70 | Plant response rating: Russian Thistle ([2]; 125 g ai/ha): 95 | Plant response rating: Blackgrass ([3]; 16 g ai/ha): 0 | Plant response rating: Blackgrass ([3]; 31 g ai/ha): 0 | Plant response rating: Blackgrass ([3]; 62 g ai/ha): 20 | Plant response rating: Blackgrass ([3]; 125 g ai/ha): 30 | Plant response rating: Bromegrass, Downy ([4]; 16 g ai/ha): 10 | Plant response rating: Bromegrass, Downy ([4]; 31 g ai/ha): 20 | Plant response rating: Bromegrass, Downy ([4]; 62 g ai/ha): 30 | Plant response rating: Bromegrass, Downy ([4]; 125 g ai/ha): 50 | Plant response rating: Deadnettle ([5]; 16 g ai/ha): 95 | Plant response rating: Deadnettle ([5]; 31 g ai/ha): 95 | Plant response rating: Deadnettle ([5]; 62 g ai/ha): 100 | Plant response rating: Deadnettle ([5]; 125 g ai/ha): 100 | Plant response rating: Galium ([6]; 16 g ai/ha): 5 | Plant response rating: Galium ([6]; 31 g ai/ha): 30 | Plant response rating: Galium ([6]; 62 g ai/ha): 50 | Plant response rating: Galium ([6]; 125 g ai/ha): 70 | Plant response rating: Foxtail, Green ([7]; 16 g ai/ha): 65 | Plant response rating: Foxtail, Green ([7]; 31 g ai/ha): 75 | Plant response rating: Foxtail, Green ([7]; 62 g ai/ha): 95 | Plant response rating: Foxtail, Green ([7]; 125 g ai/ha): 95 | Plant response rating: Barley, Spring ([8]; 16 g ai/ha): 0 | Plant response rating: Barley, Spring ([8]; 31 g ai/ha): 0 | Plant response rating: Barley, Spring ([8]; 62 g ai/ha): 0 | Plant response rating: Barley, Spring ([8]; 125 g ai/ha): 0 | Plant response rating: Wheat, Spring ([9]; 16 g ai/ha): 0 | Plant response rating: Wheat, Spring ([9]; 31 g ai/ha): 0 | Plant response rating: Wheat, Spring ([9]; 62 g ai/ha): 0 | Plant response rating: Wheat, Spring ([9]; 125 g ai/ha): 0 | Plant response rating: Mustard, Wild ([10]; 16 g ai/ha): 98 | Plant response rating: Mustard, Wild ([10]; 31 g ai/ha): 98 | Plant response rating: Mustard, Wild ([10]; 62 g ai/ha): 98 | Plant response rating: Oat, Wild (wild oat (Avena fatua) [11]; 16 g ai/ha): 0 | Plant response rating: Oat, Wild (wild oat (Avena fatua) [11]; 31 g ai/ha): 15 | Plant response rating: Oat, Wild (wild oat (Avena fatua) [11]; 62 g ai/ha): 25 | Plant response rating: Oat, Wild (wild oat (Avena fatua) [11]; 125 g ai/ha): 25 | Plant response rating: Radish, Wild ([12]; 16 g ai/ha): 65 | Plant response rating: Radish, Wild ([12]; 31 g ai/ha): 80 | Plant response rating: Radish, Wild ([12]; 62 g ai/ha): 95 | Plant response rating: Radish, Wild ([12]; 125 g ai/ha): 95 | Plant response rating: Barley, Winter ([13]; 16 g ai/ha): 0 | Plant response rating: Barley, Winter ([13]; 31 g ai/ha): 0 | Plant response rating: Barley, Winter ([13]; 62 g ai/ha): 10 | Plant response rating: Barley, Winter ([13]; 125 g ai/ha): 30 | Plant response rating: Wheat, Winter ([14]; 16 g ai/ha): 0 | Plant response rating: Wheat, Winter ([14]; 31 g ai/ha): 0 | Plant response rating: Wheat, Winter ([14]; 62 g ai/ha): 0 | Plant response rating: Wheat, Winter ([14]; 125 g ai/ha): 30 | Plant response rating: Canarygrass ([15]; 62 g ai/ha): 0 | Plant response rating: Canarygrass ([15]; 125 g ai/ha): 10 | Plant response rating: Canarygrass ([15]; 16 g ai/ha): 0 | Plant response rating: Canarygrass ([15]; 31 g ai/ha): 0 | Plant response rating: Foxtail, Green ([16]; 62 g ai/ha): 0 | Plant response rating: Foxtail, Green ([16]; 125 g ai/ha): 0 | Plant response rating: Foxtail, Green ([16]; 16 g ai/ha): 0 | Plant response rating: Foxtail, Green ([16]; 31 g ai/ha): 0 | Plant response rating: Oat, Wild (wild oat (Avena fatua) [17]; 62 g ai/ha): 0 | Plant response rating: Oat, Wild (wild oat (Avena fatua) [17]; 125 g ai/ha): 0 | Plant response rating: Oat, Wild (wild oat (Avena fatua) [17]; 16 g ai/ha): 0 | Plant response rating: Oat, Wild (wild oat (Avena fatua) [17]; 31 g ai/ha): 0 | Plant response rating: Radish, Wild ([18]; 62 g ai/ha): 0 | Plant response rating: Radish, Wild ([18]; 125 g ai/ha): 0 | Plant response rating: Radish, Wild ([18]; 16 g ai/ha): 0 | Plant response rating: Radish, Wild ([18]; 31 g ai/ha): 0

Source: patent US8952024B2, “Herbicidal pyrimidone derivatives” (E I du Pont de Nemours and Company, priority 2009, dated 2015)
